Five molecules from patent US20230416765A1, “AGROBACTERIUM RHIZOGENES AND METHODS OF TRANSFORMING CELLS” (priority 2020, published 2023) can be followed below.

For this experiment, the system named is MSU440. Briefly: Antibiotic susceptibility test on MSU440. Type of experiment: cell-based, Agrobacterium rhizogenes. From the text: The development of a disarmed strain of MSU440 relied on a selectable marker (an antibiotic resistance gene or the counter-selectable marker sacB). Antibiotic susceptibility test on MSU440 were formed with the antibiotics outlined in Table 5.

Where [1] appears, read: MSU440 response to antibiotic at 50 ug/mL.

On to `CC1(C)S[C@@H]2[C@H](NC(=O)C(C(=O)O)c3ccccc3)C(=O)N2[C@H]1C(=O)O` (some centres unmarked) [carbenicillin], for which the Resistant or susceptible entry (MSU440 response to antibiotic at 100 ug/mL) is reported as “susceptible”.

For `O=C(N[C@H](CO)[C@H](O)c1ccc([N+](=O)[O-])cc1)C(Cl)Cl` [chloramphenicol], where the note is “MSU440 response to antibiotic at 30 ug/mL”, the Resistant or susceptible result was “resistant”.

On to `CN[C@@H]1[C@H](O)[C@H](NC)[C@H]2O[C@@]3(O)C(=O)C[C@@H](C)O[C@H]3O[C@@H]2[C@H]1O` [spectinomycin], for which the Resistant or susceptible entry under setting [1] is given as “resistant”.

On to `[H]/N=C(/N)N[C@H]1[C@H](O)[C@@H](O)[C@H](O[C@@H]2O[C@@H](C)[C@](O)(C=O)[C@H]2O[C@@H]2O[C@@H](CO)[C@H](O)[C@@H](O)[C@@H]2NC)[C@@H](N/C(N)=N\[H])[C@@H]1O` [streptomycin], for which the Resistant or susceptible result under setting [1] is listed as “resistant”.

In the case of gentamicin, the Resistant or susceptible entry (MSU440 response to antibiotic at 35 ug/mL) was “susceptible”.
